From patent US8940865B2, “Myocardial peptide, preparation method and uses thereof” (Dalian Zhen-Ao Pharmaceutical Co, Ltd., priority 2008, dated 2015)

Legend:
[1] = system: ischemia/reperfusion damaged rat; test: Preventive administration, ischemia/reperfusion (LAD ligation) rat model; format: in vivo, SD rat; conditions: preventive i.v. 30 min before ligation; for MIS (myocardial infarct size): ischemic area weight/whole heart weight; for CK / LDH / MDA / SOD: rat serum
Procedure: 70 SD rats (250˜300 g per rat) were taken, wherein, 60 rats were divided into 6 groups evenly and randomly according to weight, every 10 of each group, the remains are kept for replacement of dead animals of each group.
Normal Control Group: carrying out sham operation, threading a silk suture through the left anterior descending coronary artery (LAD) without ligation;
Model Group: intravenous injecting saline solution of 5 ml/kg 30 minutes before ligation, and the preparation of hypoxia/reoxygenation model is the same as Normal Control Group;
Positive Control Group: intravenous injecting Verapamil of 1 ml/kg 30 min before ligation, preparation of the hypoxia/reoxygenation model is the same as Normal Control Group. […]
Preparation of the Model:
(§1) Intraperitoneal injecting 6% Urethane with 20 ml/kg to anaesthetize the animal, fixing the animal on operating table in supine position; being connected with the electrocardiograph to detect the limb II lead electrocardiogram, tracheal intubating and connecting the animal with respirators, taking continuous positive end-expiratory pressure with tidal volume of 6 ml/200 g, frequency of 55/min and breathing ratio of 2:1. Carrying out thoracotomy on the gap between the forth and the fifth ribs of the left border of sternum, separating the ribs and removing the pericardium. Ligating at the left anterior descending coronary artery by using 6/0 silk suture by the sign of left auricle lower margin, and setting a piece of polyethylene pipe with diameter of 1 mm between the ligation silk suture and blood vessel. Ligating the silk suture to press the left anterior descending coronary artery by the polyethylene pipe and cause myocardial ischemia. Taking part of myocardium becoming grey and electrocardiogram S-T segment raising as the sign of that the left anterior descending coronary artery is ligated successfully. Taking out the polyethylene pipe carefully to cause the reperfusion. Verifying the success of reoxygenation by reactive hyperemia of ischemia area and the descending of the raised S-T segment by ½. Reoxygenation for 30 minutes, then sampling blood from abdominal aorta to prepare serum which is used to measure the biochemical index (measuring the content of CK, LDH, MDA, SPD according to the Reagent kits Instruction).
(§2) Rat's heart was taken and after being blooded, the residual blood in the ventricle was cleaned by normal saline to weight the weight of whole heart. Fat was removed, the heart was crosscut into 4˜5 pieces and was put into a tube, to be carried out NBT dye at 37° C. (dying the normal tissue rather than the ischemic tissue), taking photographs. The ischemic area of the myocardium was cut to take a weighing, and then the myocardial infarct size (MIS) was calculated by the ratio of weight of the ischemic area of the myocardium to whole heart weight, which was present by percentage.

[2] = system: ischemia/reperfusion damaged rat; test: Therapeutic administration, ischemia/reperfusion (LAD ligation) rat model; format: in vivo, SD rat; conditions: therapeutic i.v. 5 minutes after ligation; for CK / LDH / MDA / SOD: rat serum
Procedure: as §1, §2
The drug was intravenously injured on the tail 5 minutes after ligation of LAD, then reperfusion was carried out for 30 min 30 minutes after ligation of LAD. Heart was taken after sampling blood from abdominal aorta. The biochemical index and the myocardial infarction size were measure by using the above method.

Sequence: KGAWSNVLRGMGGAF [CMPC, Lys-Gly-Ala-Trp-Ser-Asn-Val-Leu-Arg-Gly-Met-Gly-Gly-Ala-Phe]
- MIS (myocardial infarct size) ([1]; Dosage 0.2 mg/kg): 4.67 ± 0.74 %
- MIS (myocardial infarct size) ([1]; Dosage 0.6 mg/kg): 4.17 ± 0.62 %
- MIS (myocardial infarct size) ([1]; Dosage 1.8 mg/kg): 3.47 ± 1.08 %
- CK ([1]; Dosage 0.2 mg/kg): 2.238 ± 0.274 U/ml
- LDH ([1]; Dosage 0.2 mg/kg): 7555.34 ± 600.16 U/L
- MDA ([1]; Dosage 0.2 mg/kg): 4.642 ± 0.978 nmol/mL
- SOD ([1]; Dosage 0.2 mg/kg): 134.85 ± 12.55 U/ml
- CK ([1]; Dosage 0.6 mg/kg): 2.172 ± 0.329 U/ml
- LDH ([1]; Dosage 0.6 mg/kg): 7531.58 ± 414.64 U/L
- MDA ([1]; Dosage 0.6 mg/kg): 4.847 ± 0.570 nmol/mL
- SOD ([1]; Dosage 0.6 mg/kg): 130.43 ± 10.55 U/ml
- CK ([1]; Dosage 1.8 mg/kg): 2.045 ± 0.358 U/ml
- LDH ([1]; Dosage 1.8 mg/kg): 7453.80 ± 366.11 U/L
- MDA ([1]; Dosage 1.8 mg/kg): 4.371 ± 0.47 nmol/mL
- SOD ([1]; Dosage 1.8 mg/kg): 135.67 ± 8.64 U/ml
- CK ([2]; Dosage 0.2 mg/kg): 2.026 ± 0.532 U/ml
- LDH ([2]; Dosage 0.2 mg/kg): 7763.83 ± 770.70 U/L
- MDA ([2]; Dosage 0.2 mg/kg): 4.878 ± 0.430 nmol/mL
- SOD ([2]; Dosage 0.2 mg/kg): 140.59 ± 20.28 U/ml
- CK ([2]; Dosage 0.6 mg/kg): 1.748 ± 0.573 U/ml
- LDH ([2]; Dosage 0.6 mg/kg): 7034.59 ± 1167.17 U/L
- MDA ([2]; Dosage 0.6 mg/kg): 4.862 ± 0.468 nmol/mL
- SOD ([2]; Dosage 0.6 mg/kg): 145.41 ± 10.56 U/ml
- CK ([2]; Dosage 1.8 mg/kg): 1.707 ± 0.332 U/ml
- LDH ([2]; Dosage 1.8 mg/kg): 7233.69 ± 297.69 U/L
- MDA ([2]; Dosage 1.8 mg/kg): 4.685 ± 0.714 nmol/mL
- SOD ([2]; Dosage 1.8 mg/kg): 143.41 ± 12.14 U/ml
- MIS (myocardial infarct size) ([2]; Dosage 0.2 mg/kg): 3.95 ± 0.97 %
- MIS (myocardial infarct size) ([2]; Dosage 0.6 mg/kg): 4.20 ± 0.78 %
- MIS (myocardial infarct size) ([2]; Dosage 1.8 mg/kg): 3.68 ± 1.39 %
